Reference: the supplement of paper PMC13380429

Assays:
Conditions in all cases: 72 h
[1] = system: U2OS; assay: cell viability relative to DMSO; higher = less toxic
[2] = system: HepG2; assay: as above
[3] = system: Caco-2; assay: as above
[4] = system: Vero E6; assay: as above
[5] = system: Calu-3; assay: as above
[6] = system: U2OS; assay: relative viability EC50 (midpoint between 100% and the lowest measured viability); higher = less toxic
[7] = system: HepG2; assay: as above
[8] = system: Caco-2; assay: as above
[9] = system: Vero E6; assay: as above
[10] = system: Calu-3; assay: as above
[11] = system: U2OS; assay: drug sensitivity score (DSS) for viability; higher = more toxic; extreme values may be limits of the assay
[12] = system: HepG2; assay: as above
[13] = system: Caco-2; assay: as above
[14] = system: Vero E6; assay: as above
[15] = system: Calu-3; assay: as above

| Compound | cell viability ([1]; 1 nM) | cell viability ([1]; 10 nM) | cell viability ([1]; 100 nM) | cell viability ([1]; 1000 nM) | cell viability ([1]; 10000 nM) | cell viability ([2]; 1 nM) | cell viability ([2]; 10 nM) | cell viability ([2]; 100 nM) | cell viability ([2]; 1000 nM) | cell viability ([2]; 10000 nM) | cell viability ([3]; 1 nM) | cell viability ([3]; 10 nM) | cell viability ([3]; 100 nM) | cell viability ([3]; 1000 nM) | cell viability ([3]; 10000 nM) | cell viability ([4]; 1 nM) | cell viability ([4]; 10 nM) | cell viability ([4]; 100 nM) | cell viability ([4]; 1000 nM) | cell viability ([4]; 10000 nM) | cell viability ([5]; 1 nM) | cell viability ([5]; 10 nM) | cell viability ([5]; 100 nM) | cell viability ([5]; 1000 nM) | cell viability ([5]; 10000 nM) | relative viability EC50 [6] | relative viability EC50 [7] | relative viability EC50 [8] | relative viability EC50 [9] | relative viability EC50 [10] | drug sensitivity score [11] | drug sensitivity score [12] | drug sensitivity score [13] | drug sensitivity score [14] | drug sensitivity score [15] |
| --- | --- | --- | --- | --- | --- | --- | --- | --- | --- | --- | --- | --- | --- | --- | --- | --- | --- | --- | --- | --- | --- | --- | --- | --- | --- | --- | --- | --- | --- | --- | --- | --- | --- | --- | --- |
| O=C(NCCNCC(O)COc1ccc(O)cc1)N1CCOCC1 (stereo not given) [xamoterol] | 99.7% | 91.3% | 96.5% | 99.1% | 101% | 99.1% | 99.4% | 96.2% | 102% | 102% | 95.8% | 96.7% | 99.9% | 90.3% | 99.5% | 93.8% | 98.5% | 98% | 98.5% | 95.7% | 106% | 104% | 110% | 100% | 93.6% | > 10 µM | > 10 µM | > 10 µM | > 10 µM | > 10 µM | 0 | 0 | 0 | 0 | 0 |
| Cc1c(C(N)=O)cc([N+](=O)[O-])cc1[N+](=O)[O-] [dinitolmide] | 111% | 105% | 105% | 93.5% | 92.3% | 104% | 104% | 106% | 99.7% | 102% | 101% | 97.6% | 102% | 95.1% | 105% | 102% | 101% | 98.8% | 98.3% | 97.4% | 99.4% | 105% | 101% | 100% | 103% | > 10 µM | > 10 µM | > 10 µM | > 10 µM | > 10 µM | 0 | 0 | 0 | 0 | 0 |
| Cc1ccc(-c2ncc[nH]2)cc1NC(=O)c1ccc(OCc2ccccn2)cc1 | 96.5% | 98% | 100% | 97.1% | 99.2% | 103% | 103% | 97.7% | 96% | 94.7% | 101% | 101% | 105% | 96.7% | 85.2% | 100% | 104% | 99.2% | 99.2% | 90% | 91% | 97.8% | 96.6% | 89.1% | 101% | > 10 µM | > 10 µM | > 10 µM | > 10 µM | > 10 µM | 0 | 0 | 0.5 | 0 | 0 |
| CO[C@H]1[C@H](O)[C@@H](O)[C@@H](O)[C@H](O)[C@@H]1O [pinitol] | 96.5% | 97.5% | 98.4% | 99.8% | 96% | 99.2% | 95.1% | 85.4% | 80% | 96.6% | 107% | 84.5% | 104% | 94% | 97% | 102% | 106% | 104% | 92.1% | 93.4% | 83.9% | 100% | 89.7% | 96.5% | 94.2% | > 10 µM | > 10 µM | > 10 µM | > 10 µM | > 10 µM | 0 | 0 | 0 | 0 | 0 |
